Source: US12018005B1, “Blarcamesine co-crystals for the manufacture of pharmaceutical dosage form” (EGIS GYÓGYSZERGYÁR ZRT., priority 2023, dated 2024)

Legend:
Assay type in all cases: physicochemical
[1] = crystal structure after wet grinding; conditions: subjected to wet grinding
[2] = solubility over the relevant pH range; conditions: entire relevant pH range
[3] = resistance to oxidative stress; conditions: compared with blarcamesine hydrochloric acid salt

CN(C)CC1CCOC1(c1ccccc1)c1ccccc1.Cl (racemic) [hydrochloric acid salt, [(2,2-diphenyloxolan-3-yl)methyl]dimethylamine hydrochloride]
retention of crystal structure / polymorphic form after wet grinding [1]: polymorphic form of the hydrochloride salt changes | solubility [2]: extreme solubility

(S)-(−)-blarcamesine hydrochloride, (R)-(+)-blarcamesine hydrochloride, ZnCl2 (1:1:1) co-crystal [ZnCl2 co-crystal]
resistance to oxidative stress [3]: more resistant to oxidative stress than the hydrochloric acid salt | retention of crystal structure / polymorphic form after wet grinding [1]: retains its crystal structure
